Article PMC11672724, “Antiparasitic Activities of Acyl Hydrazones from Cinnamaldehydes and Structurally Related Fragrances” (Antibiotics, 2024)

Tests used:
Vero monkey kidney cells = experiment: Vero cell cytotoxicity (MTT assay, 72 h); assay type: cell-based; settings: Primates, IC50 ± SD
Protocol: To assess the test compounds’ cytotoxicity, MTT assays were performed. The Vero cells and macrophages were cultivated for 24 h at 37 °C in RPMI 1640 media with 10% FBS and 5% CO2 in 96-well plates (5 × 10^3 cells/well/200 μL). Following a washing step with PBS, the cells were treated with test compounds at different concentrations (50, 25, 12.5, 6.25, 3.13, 1.65, and 0.75 μg /mL) in 10% FBS medium for 72 h. Negative control cells were only given media with 2% FBS and 1% DMSO. The cells were cultured for 4 h after the supernatant was disposed of, and 50 μL of RPMI 1640 media containing 14 μL MTT (5 mg/mL) was added. After removing the supernatant once again, 150 μL of DMSO was added. IC50 values were determined from three independent experiments.

L. major amastigotes = experiment: Leishmania major amastigotes in peritoneal macrophages (percentage of infected macrophages, 72 h); assay type: cell-based; settings: Macrophage, IC50 ± SD
Protocol: (§1) Promastigotes of L. major were obtained from a patient (February 2016) and cultured at 26 °C in Schneider’s Drosophila medium (Invitrogen, Carlsbad, CA, USA) supplemented with 10% heat-inactivated fetal bovine serum (FBS, Invitrogen, USA) and antibiotics, with weekly transfers in a tissue culture flask. Promastigotes were cryopreserved in liquid nitrogen at a concentration of 3 × 10^6 parasites/mL. Virulent L. major parasites were maintained by serial passage in female BALB/c mice, achieved by injecting hind footpads with 1 × 10^6 stationary-phase promastigotes. Amastigotes were isolated from the mice after 8 weeks, then converted to promastigotes by cultivation at 26 °C in Schneider’s medium containing 10% FBS and antibiotics. Amastigote-derived promastigotes, which underwent several in vitro passages, were used for the infection studies. BALB/c mice (both male and female) were provided by the Pharmaceutical College, King Saud University, Kingdom of Saudi Arabia, and housed in specific pathogen-free conditions following the ethical guidelines of the Qassim University Research Ethics Committee (permission number: 20-03-20).
Activity against amastigotes in macrophages was evaluated using peritoneal macrophages, which were harvested from 6–8-week-old BALB/c mice of different sex, and plated at 5 × 10^4 cells/well in 96-well plates containing phenol-red-free RPMI 1640 medium with 10% FBS. After 4 h at 37 °C and 5% CO2 to promote adhesion, cells were washed with PBS, and 200 μL of an L. major promastigote solution (10 promastigotes per macrophage) was added. Plates were incubated for 24 h at 37 °C in a 5% CO2 environment to allow infection and amastigote differentiation. Infected cells were then washed with PBS and overlaid with RPMI 1640 medium containing the test compounds at the same concentrations as applied for the experiments with promastigotes, followed by incubation at 37 °C and 5% CO2 for 72 h. […] IC50 values were calculated from three independent experiments.

L. major promastigotes = experiment: Leishmania major promastigote assay (MTT, 72 h); assay type: cell-based; settings: for IC50: IC50 ± SD, MTT, 72 h; for activity against L. major promastigotes (in words): verbal statement in text on the L. major experiments; for SI (promastigotes) = selectivity index (macrophages/L. major promastigotes): ratio IC50 macrophages / IC50 promastigotes
Protocol: as §1
L. major promastigotes in the logarithmic phase were cultured in phenol-red-free RPMI 1640 medium (Invitrogen, USA) with 10% FBS in 96-well plates at 10^6 cells/mL (200 μL/well, counted with a hemocytometer). Test compounds were added at final concentrations of 50, 25, 12.5, 6.25, 3.13, 1.65, and 0.75 μg/mL. […] After incubation at 26 °C for 72 h, viable promastigotes were counted using an MTT colorimetric assay. The formed formazan was dissolved in a detergent and the absorbance was measured at 570 nm using an ELISA reader. IC50 values were derived from three independent experiments.

macrophages = experiment: Macrophage cytotoxicity (MTT assay, 72 h); assay type: cell-based, BALB/c mice; settings: Mus musculus, IC50 ± SD
Protocol: Plates were incubated for 24 h at 37 °C in a 5% CO2 environment to allow infection and amastigote differentiation. Infected cells were then washed with PBS and overlaid with RPMI 1640 medium containing the test compounds at the same concentrations as applied for the experiments with promastigotes, followed by incubation at 37 °C and 5% CO2 for 72 h. […] The percentage of infected macrophages was determined microscopically after fixation, Giemsa staining, and medium removal. IC50 values were calculated from three independent experiments. To assess the test compounds’ cytotoxicity, MTT assays were performed. […] Negative control cells were only given media with 2% FBS and 1% DMSO. The cells were cultured for 4 h after the supernatant was disposed of, and 50 μL of RPMI 1640 media containing 14 μL MTT (5 mg/mL) was added. After removing the supernatant once again, 150 μL of DMSO was added. IC50 values were determined from three independent experiments.

[1] = test system: T. gondii RH strain tachyzoites; experiment: Toxoplasma gondii cells drug testing assay (infection index in Vero cells, 72 h); assay type: cell-based; settings: for IC50: Toxoplasma gondii, Vero, IC50 ± SD, three independent experiments, 72 h; for SI = selectivity index (Vero/T. gondii): ratio IC50 Vero / IC50 T. gondii
Protocol: Cells of the Vero cell line (ATCC® CCL81™, Manassas, VA, USA) were used to cultivate T. gondii RH strain tachyzoites. Vero cells were maintained in complete RPMI 1640 medium (Thermo Fisher Scientific, Waltham, MA, USA). For cell cultivation, 96-well plates were prepared with 5 × 10^3 cells per well in 200 μL of RPMI 1640 medium, then incubated at 37 °C and 5% CO2 for 24 h. The medium was then removed, and cells were washed with phosphate-buffered saline (PBS). Next, RPMI 1640 medium with 2% FBS and parasites at a 5:1 parasite-to-cell ratio were added. After a 5 h incubation at 37 °C and 5% CO2, cells were washed with PBS and subjected to further treatments. […] After incubation at 37 °C and 5% CO2 for 72 h, cells were washed with PBS, fixed in 10% formalin, and stained with 1% toluidine blue. An inverted photomicroscope was used to assess cell infection and to determine the infection index (number of infected cells out of 200 counted cells). The inhibition percentage was calculated as follows:Inhibition (%) = [(I Control − I Experimental)/I Control] × 100 where “I Control” represents the infection index of untreated cells, and “I Experimental” represents the infection index of cells treated with test compounds. The effects of the compounds on parasite growth are expressed as IC50 values derived from three independent experiments.

Row | SMILES | IC50 (Vero monkey kidney cells) [µM] | IC50 (L. major amastigotes) [µM] | IC50 (L. major promastigotes) [µM] | IC50 (L. major promastigotes; Leishmania major) [µM] | activity against L. major promastigotes (in words) (L. major promastigotes) | IC50 (macrophages) [µM] | IC50 [1] [µM] | SI = selectivity index (Vero/T. gondii) [1] | SI (promastigotes) = selectivity index (macrophages/L. major promastigotes) (L. major promastigotes) | activity against T. gondii (in words) [1]
1 | CC(C)c1cccc(C(C)CC=NNC(=O)c2cc3ccccc3cc2O)c1 (stereo not drawn) [Compound 4a, N′-3-(3-Isopropylphenyl)butanylidene-3-hydroxy-2-naphthoic hydrazide] | 39.6 ± 4.8 | > 53.4 | 9.6 ± 2.4 | < 10 | moderate activity | > 53.4 | 14.4 ± 2.1 | 2.8 | – | –
2 | CC(C)c1cccc(C(C)C/C=N/NC(=O)c2ccccc2F)c1 (stereo not drawn) [Compound 4d, N′-3-(3-Isopropylphenyl)butanylidene-2-fluorobenzoylhydrazide] | > 61.3 | > 61.3 | – | > 61.3 | – | > 61.3 | > 61.3 | – | – | –
3 | O=C(N/N=C/C=C/c1ccccc1)c1ccccc1O [Compound 2c] | 19.5 ± 2.6 | > 49.6 | – | 47.7 ± 6.5 | – | 43.6 ± 8.6 | 1.1 ± 0.2 | 17.3 | 0.91 | –
4 | CN(C)c1ccc(/C=C/C=N/NC(=O)c2cc3ccccc3cc2O)cc1 [Compound 2b] | 24.2 ± 2.7 | > 36.7 | – | > 36.7 | – | > 36.7 | 23.4 ± 3.9 | 1.0 | – | –
5 | CN(C)c1ccc(/C=C/C=N/NC(=O)c2ccncc2)cc1 [Compound 2m] | 41.5 ± 7.2 | > 44.8 | – | > 44.8 | – | > 44.8 | 31.6 ± 6.2 | 1.3 | – | –
6 | CN(C)c1ccc(/C=C/C=N/NC(=O)c2ccccc2O)cc1 [Compound 2d, (E)-N′-(4-Dimethylaminocinnamylidene)-2-hydroxybenzoylhydrazide] | 22 ± 3 | > 42.7 | – | > 42.7 | – | > 42.7 | 3.9 ± 0.5 | 5.7 | – | reasonable activity
7 | CC(C)Cc1ccc(CC(C)/C=N/NC(=O)c2cc3ccccc3cc2O)cc1 (stereo not drawn) [Compound 3a, N′-2-Methyl-3-[4-(2-methylpropyl)phenyl]propanylidene-3-hydroxy-2-naphthoic hydrazide] | 41.3 ± 6.9 | > 51.5 | – | > 51.5 | – | > 51.5 | 46.9 ± 8.4 | 0.88 | – | –
8 | O=C(N/N=C/C=C/c1ccccc1)c1cc2ccccc2cc1O [Compound 2a] | 7.3 ± 0.9 | > 41.7 | – | 16.8 ± 2.8 | moderate activity | > 41.7 | 0.63 ± 0.08 | 11.5 | >2.5 | –
9 | CC(C)c1cccc(C(C)C/C=N/NC(=O)c2ccccc2O)c1 (stereo not drawn) [Compound 4b, N′-3-(3-Isopropylphenyl)butanylidene-2-hydroxybenzoylhydrazide] | 19.2 ± 2.2 | 45.4 ± 7.9 | – | 39.5 ± 5.9 | – | 50.3 ± 9.4 | 21 ± 3.5 | 0.92 | 1.3 | –
